Experimental data as given in PMC11931356, “New benzimidazole derivatives containing hydrazone group as anticancer agents: Inhibition of carbonic anhydrase IX and molecular docking studies” (Archiv Der Pharmazie, 2025).

Columns and labels:
[1] = tested on: L929 (healthy mouse fibroblast cell line); test: MTT cell viability assay, L929; type: cell-based; details: max 100 µM, mean ± SD
Procedure: (§1) Cell lines from the American Type Culture Collection (ATCC) were used to test the human breast adenocarcinoma cell line (MCF7), rat glial tumor (C6), healthy mouse fibroblast cell line (L929), and colon cancer (HT29). Cells were combined with solutions of 1% penicillin (Sigma Aldrich), 10% fetal bovine serum (FBS; Sigma Aldrich), and 89% DMEM (Dulbecco's modified Eagle's medium; Gibco, Thermo Fisher Scientific). The cells were incubated at 37°C with 95% humidity and 5% CO2 to allow the medium to develop.
(§2) All compounds were examined for their cytotoxic effects on the L929, HT29, MCF7, and C6 cell lines using MTT assay. Approximately 1 × 10^4 cells were seeded in each well. Cells were allowed to adhere for 24 h and then the syntheses were applied at different concentrations. All syntheses were run in three repetitions. Wells with a maximum of 100 µM product were incubated for 24 h. Cisplatin was used as the positive control, and all wells devoid of specimens served as negative controls. To identify metabolically active cells, the wells were incubated for 3 h at 37°C after being treated with MTT solution. Following the MTT interaction, DMSO solution was added to the wells after they had been drained. This solution was used to dissolve the formazan crystals, and a color shift indicated how many live cells were present in each well.

HT29 (colon cancer) = test: MTT cell viability assay, HT29; type: cell-based; details: max 100 µM, mean ± SD
Procedure: as §1, §2

[2] = tested on: human breast adenocarcinoma cell line (MCF7); test: MTT cell viability assay, MCF7; type: cell-based; details: max 100 µM, mean ± SD
Procedure: as §1, §2

rat glial tumor (C6) = test: MTT cell viability assay, C6; type: cell-based; details: 24 h incubation, max 100 µM, mean ± SD
Procedure: as §1, §2

CA IX enzyme = test: Carbonic anhydrase IX inhibition assay (ELISA kit, CA IX protein level); type: biochemical, human; details: for Concentration (CA IX protein level, ELISA): ELISA kit, Control 250,225, lower = stronger inhibition, p < 0.001; for Concantration hCA IX: supplement table, same ELISA values
Procedure: The CA IX inhibitor acetazolamide was used as a positive control.
CA‐IX level was measured using the DCA900, R&D Systems ELISA Kit. In brief, 100 μL samples were incubated with 50 μL assay buffer for 2 h at room temperature (RT) in a 96‐well plate. The well was then washed four times with 400 µL wash buffer. After 200 µL of a conjugate buffer incubated at room temperature for 2 hours, the plate was washed four times with wash buffer. It was then incubated with 200 µL of substrate buffer for 30 min at room temperature. After washing, 50 µL of the stop solution was used to terminate the reaction. The plate was read at 450 nm using an Epoch™ microplate spectrophotometer (BioTek). The concentration of CA IX protein in each sample was calculated using a standard curve.

BAX [3] = test: RT-PCR expression profile, BAX in HT29; type: cell-based; details: HT29 cell lines, effective dose, 24 h, vs control group, p < 0.05
Procedure: (§3) Total RNA was first isolated from the cells to which effective doses of compounds 3d and/or 3j were applied at the 24th hour, by the kit protocols, and then cDNA was synthesized from this total RNA. The expression profiles of Caspase 3, BAX, and BCL‐2 genes from the cDNA samples obtained were analyzed with the RT‐PCR device by the kit protocol. Statistical analysis of the data with the ΔΔCT method was performed using the “RT2 profiler RT‐PCR Array Data Analysis version 3.5” (http://pcrdataanalysissabiosciences.com/pcr/arrayanalysis.php) software.

BAX [4] = test: RT-PCR expression profile, BAX in MCF7; type: cell-based, human; details: MCF7 cell lines, effective dose, 24 h, vs control group, p < 0.05
Procedure: as §3

BAX [5] = test: RT-PCR expression profile, BAX in C6; type: cell-based, rat; details: C6 cell lines, effective dose, 24 h, vs control group, p < 0.05
Procedure: as §3

Caspase 3 = test: RT-PCR expression profile, Caspase 3 in C6; type: cell-based, rat; details: C6 cell lines, effective dose, 24 h, vs control group, p < 0.05
Procedure: as §3

Ki67 [6] = test: Immunofluorescent microscope analysis, Ki67 in C6; type: cell-based, rat; details: C6 cell line, compared with the cisplatin-treated group
Procedure: (§4) Immunofluorescent microscope analysis was performed as in the previous study.^[ [33] ^]

Ki67 [7] = test: Immunofluorescent microscope analysis, Ki67 in MCF7; type: cell-based, human; details: MCF7 cell line, compared with the cisplatin-treated group
Procedure: as §4

Ki67 [8] = test: Immunofluorescent microscope analysis, Ki67 in HT29; type: cell-based; details: HT29 cell line, compared with the cisplatin-treated group
Procedure: as §4

Ki67 [9] = test: Immunofluorescent microscope analysis, Ki67 in L929; type: cell-based, mouse; details: L929 cell line, compared with the cisplatin-treated group
Procedure: as §4

BAX [10] = test: RT-PCR expression profile, BAX in L929; type: cell-based, mouse; details: L929 cell lines, effective dose, 24 h, vs control group, p < 0.05
Procedure: as §3

[11] = Mus musculus, L929, 24 h incubation
[12] = Homo sapiens, HT-29, 24 h incubation
[13] = Homo sapiens, MCF7, 24 h incubation

| Concentration (CA IX protein level, ELISA) (CA IX enzyme) | Concantration hCA IX (CA IX enzyme) | IC50 (HT29 (colon cancer); [12]) [µM] | IC50 [2, 13] [µM] | IC50 (rat glial tumor (C6); Rattus norvegicus) [µM] | Compound | IC50 ([1]; 24 h incubation) [µM] | IC50 (HT29 (colon cancer); 24 h incubation) [µM] | IC50 ([2]; 24 h incubation) [µM] | IC50 (rat glial tumor (C6)) [µM] | IC50 [1, 11] [µM] | BAX expression increase (BAX [3]) [times] | BAX expression increase (BAX [4]) [times] | BAX expression increase (BAX [5]) [times] | Caspase 3 expression increase (Caspase 3) [times] | Ki67 immunolocalisation rate (Ki67 [6]) | Ki67 immunolocalisation rate (Ki67 [7]) | Ki67 immunolocalisation rate (Ki67 [8]) | Ki67 immunolocalisation rate (Ki67 [9]) | BAX expression increase (BAX [10]) [times] |
| --- | --- | --- | --- | --- | --- | --- | --- | --- | --- | --- | --- | --- | --- | --- | --- | --- | --- | --- | --- |
| 93,975 pg/mL | 93,975 pg/ml |  |  |  | 4‐(5‐Cyano‐1H‐benzo[d]imidazol‐2‐yl)‐N′‐[(imidazol‐2‐yl)methylene]benzohydrazide [Compound 3f] | > 100 | > 100 | > 100 | > 100 |  |  |  |  |  |  |  |  |  |  |
| 95,745 pg/mL | 95,745 pg/ml | > 100 | > 100 | > 100 | N#Cc1ccc2[nH]c(-c3ccc(C(=O)NN=Cc4cccs4)cc3)nc2c1 [Compound 3g, 4‐(5‐Cyano‐1H‐benzo[d]imidazol‐2‐yl)‐N′‐[(thiophen‐2‐yl)methylene]benzohydrazide] |  |  |  |  | > 100 |  |  |  |  |  |  |  |  |  |
| 119,425 pg/mL | 119,425 pg/ml | > 100 | > 100 | > 100 | N#Cc1ccc2[nH]c(-c3ccc(C(=O)NN=Cc4cccnc4)cc3)nc2c1 [Compound 3h, 4‐(5‐Cyano‐1H‐benzo[d]imidazol‐2‐yl)‐N′‐[(pyridine‐3‐yl)methylene]benzohydrazide] |  |  |  |  | > 100 |  |  |  |  |  |  |  |  |  |
| 92,225 pg/mL | 92,225 pg/ml | > 100 | > 100 | > 100 | N#Cc1ccc2[nH]c(-c3ccc(C(=O)NN=Cc4ccc([N+](=O)[O-])s4)cc3)nc2c1 [Compound 3i, 4‐(5‐Cyano‐1H‐benzo[d]imidazol‐2‐yl)‐N′‐[(5‐nitrothiophen‐2‐yl)methylene]benzohydrazide] |  |  |  |  | > 100 |  |  |  |  |  |  |  |  |  |
| 82,745 pg/mL | 82,745 pg/ml | 45.8 ± 15.6 | > 100 | > 100 | Cc1ccc(C=NNC(=O)c2ccc(-c3nc4cc(C#N)ccc4[nH]3)cc2)s1 [Compound 3j, 4‐(5‐Cyano‐1H‐benzo[d]imidazol‐2‐yl)‐N′‐[(5‐methylthiophen‐2‐yl)methylene]benzohydrazide] |  |  |  |  | > 100 | 3.07 |  |  |  |  |  | significantly decreased | significantly decreased | 105.7 |

Further lines, the compound ahead of its results:

| Compound | Concentration (CA IX protein level, ELISA) (CA IX enzyme) | Concantration hCA IX (CA IX enzyme) | IC50 (HT29 (colon cancer); [12]) [µM] | IC50 [2, 13] [µM] | IC50 (rat glial tumor (C6); Rattus norvegicus) [µM] | IC50 ([1]; 24 h incubation) [µM] | IC50 (HT29 (colon cancer); 24 h incubation) [µM] | IC50 ([2]; 24 h incubation) [µM] | IC50 (rat glial tumor (C6)) [µM] | IC50 [1, 11] [µM] | BAX expression increase (BAX [3]) [times] | BAX expression increase (BAX [4]) [times] | BAX expression increase (BAX [5]) [times] | Caspase 3 expression increase (Caspase 3) [times] | Ki67 immunolocalisation rate (Ki67 [6]) | Ki67 immunolocalisation rate (Ki67 [7]) | Ki67 immunolocalisation rate (Ki67 [8]) | Ki67 immunolocalisation rate (Ki67 [9]) | BAX expression increase (BAX [10]) [times] |
| --- | --- | --- | --- | --- | --- | --- | --- | --- | --- | --- | --- | --- | --- | --- | --- | --- | --- | --- | --- |
| N.N.[Cl][Pt][Cl] [Cisplatin, reference compound] |  |  |  |  |  | 88.8 ± 6.4 | 59.4 ± 12.6 | 29.6 ± 7.6 | 39.4 ± 6.4 |  |  |  |  |  |  |  |  |  |  |
| N#Cc1ccc2[nH]c(-c3ccc(C(=O)NN=Cc4ccco4)cc3)nc2c1 [Compound 3a, 4‐(5‐Cyano‐1H‐benzo[d]imidazol‐2‐yl)‐N′‐[(furan‐2‐yl)methylene]benzohydrazide] |  |  | 71.8 ± 3.68 | 86.4 ± 1.28 | 98.9 ± 7.94 |  |  |  |  | 84.6 ± 9.6 |  |  |  |  |  |  |  |  |  |
| Cc1ccc(C=NNC(=O)c2ccc(-c3nc4cc(C#N)ccc4[nH]3)cc2)o1 [Compound 3b, 4‐(5‐Cyano‐1H‐benzo[d]imidazol‐2‐yl)‐N′‐[(5‐methylfuran‐2‐yl)methylene]benzohydrazide] | 175,225 pg/mL | 175,225 pg/ml | 89.6 ± 5.74 | 88.4 ± 2.18 | > 100 |  |  |  |  | > 100 |  |  |  |  |  |  |  |  |  |
| N#Cc1ccc2[nH]c(-c3ccc(C(=O)NN=Cc4ccc([N+](=O)[O-])o4)cc3)nc2c1 [Compound 3c, 4‐(5‐Cyano‐1H‐benzo[d]imidazol‐2‐yl)‐N′‐[(5‐nitrofuran‐2‐yl)methylene]benzohydrazide] | 150,225 pg/mL | 150,225 pg/ml | 90.6 ± 12.1 | > 100 | > 100 |  |  |  |  | > 100 |  |  |  |  |  |  |  |  |  |
| Cc1ccsc1C=NNC(=O)c1ccc(-c2nc3cc(C#N)ccc3[nH]2)cc1 [Compound 3d, 4‐(5‐Cyano‐1H‐benzo[d]imidazol‐2‐yl)‐N′‐[(3‐methylthiophen‐2‐yl)methylene]benzohydrazide] | 83,975 pg/mL | 83,975 pg/ml | 39.1 ± 8.28 | 25.6 ± 16.4 | 20.5 ± 8.34 |  |  |  |  | > 100 | 6.59 | 12.55 | 4.06 | 2.75 | significantly decreased | significantly decreased | significantly decreased | significantly decreased |  |
| N#Cc1ccc2[nH]c(-c3ccc(C(=O)NN=Cc4ccncc4)cc3)nc2c1 [Compound 3e, 4‐(5‐Cyano‐1H‐benzo[d]imidazol‐2‐yl)‐N′‐[(pyridine‐4‐yl)methylene]benzohydrazide] | 120,225 pg/mL | 120,225 pg/ml | > 100 | > 100 | > 100 |  |  |  |  | > 100 |  |  |  |  |  |  |  |  |  |
